“And” between values parts separate entries of the source, which are not always exact repeats. Equal values may be shown once. Read-outs that look alike come from different tables or passages of the source.
Experiments:
[1] = biological target: T1, peripheral benzodiazepine binding site (Rattus norvegicus, UniProt P16257); test: In vitro binding, [3H]-PK11195, kidney membrane preparation; conditions: [3H]-PK11195 (2 nM), 4° C., 1 h
T1 construct: diluted kidney membrane preparation (200 μg); from tissue; host or cells: kidney membrane preparation
Experimental: Non-specific binding was determined with PK11195 (10 μM).
(§1) Non-specific binding was determined with Flumazenil (20 μM). In both cases, incubations were terminated by rapid filtration through Whatman GF/B glass fibre. Filters were immediately washed 3 times with 5 mL ice-cold 50 mM Tris/HCl at pH 7.4. Filters were counted in a β-scintillation counter (Packard) to measure the amount of bound radioactivity. The IC50 of the compounds for the peripheral benzodiazepine binding site and the central benzodiazepine receptor were calculated using Kell 6 software.

[2] = biological target: central benzodiazepine receptors; test: In vitro binding, [3H]-Flumazenil, brain cortex membrane preparation; conditions: [3H]-Flumazenil (2 nM), 25° C., 45 min, read-out: CBR IC50
Experimental: as §1

[3] = Biodistribution of 18F-labelled tracers in rats; format: in vivo; conditions: SD rats; for Biodistribution: Adrenals / Biodistribution: Bladder / Biodistribution: Blood / Biodistribution: Bone / Biodistribution: Brain / Biodistribution: GIT / Biodistribution: Heart / Biodistribution: Kidney / Biodistribution: Liver / Biodistribution: Lungs / Biodistribution: Muscle / Biodistribution: Olfactory bulbs / Biodistribution: Pancreas / Biodistribution: Skin / Biodistribution: Spleen / Biodistribution: Stomach / Biodistribution: Testes / Biodistribution: Thymus / Biodistribution: Thyroid: decay correction not stated
Experimental: [^18F]Fluoride, in the form of H^18F, was produced by the ^18O(p,n)^18F nuclear reaction by bombardment of ^18O-enriched water target. The aqueous [^18F]fluoride solution was added to a 2.5-mL wheaton vial containing dry acetonitrile (1 mL), Kryptofix 2.2.2 (5 mg, 13.3 μmol) and potassium carbonate (2 mg, 14.5 μmol). The solvent was evaporated under a stream of nitrogen at 90° C. with a reducing vacuum. This azeotropic drying was repeated twice by further addition of acetonitrile (2×1 mL). The tosylate precursor 2-(2-(4-(2-tosylethoxy)phenyl)-6-chloroimidazo[1,2-a]pyridin-3-yl)-N,N-diethylacetamide (2 mg, 3.6 μmol) was dissolved in acetonitrile (1 ml) and added to the dried K222.K2CO3.KF complex. Stirring and heating at 90° C. continued for 10 to 15 mins before the reaction mixture was diluted with mobile phase and purified by reverse phase HPLC on an Alltech Alltima, C18, 10μ, 250×22 mm column eluting at 10 mLs/min with 45% acetonitrile, 55% water with 0.1% TFA.
The biodistribution of PBR132* was undertaken in SD rats and analysis up to 4 h p.i. in the brain and peripheral tissues was performed. The specificity and selectivity of the tracer were assessed by pre-treatment with PBR and Central benzodiazepine receptor (CBR) specific ligands (1 mg/kg) 5 min prior to injection of PBR132*.
The biodistribution of PBR 147* was performed in SD rats and brain and peripheral tissues were analysised at 15, 30 min, 1, and 4 h p.i. The specificity and selectivity of the tracer was assessed by pre-treatment of the animals with the PBR ligands PK11195 and Ro 5-4864 and with Flumazenil for CBR at 1 mg/kg 5 min prior to injection of PBR 147*
The biodistribution of PBR102* and PBR111* were performed in SD rats and brain and peripheral tissues analysed at 15, 30 min, 1, and 4 h p.i. The specificity and selectivity of the tracers were assessed by pre-treatment with the PBR ligands PK11195 and Ro 5-4864 and with Flumazenil for CBR at 1 mg/kg 5 min prior to injection of the corresponding tracers.
The specificity and selectivity of the tracers were assessed by pre-treatment with the PBR ligands PK11195 and Ro 5-4864 and with Flumazenil for CBR at 1 mg/kg 5 min prior to injection of the corresponding tracers.

Compound: 2-(6-chloro-2-(4-methoxyphenyl)imidazo[1,2-b]pyridazin-3-yl)-N,N-diethylacetamide [PBR 133]
- LogP HPLC (LogP HPLC; HPLC): 2.35 ± 0.07
- IC50 ([1]; read-out: PBR IC50): 32 nM
- IC50 [2]: 18.8 nM

Compound: CCN(CC)C(=O)Cc1c(-c2ccc(C(C)(C)C)cc2)nc2ccc(F)nn12 [Compound 1, reference compound]
- IC50 ([1]; PBR IC50 (nM)): 29 nM
- IC50 [2]: 340 nM

Compound: CCN(CC)C(=O)Cc1c(-c2ccc(OCCF)cc2)nn2c(C)cc(C)nc12 [PBR099, 2-(2-(4-(2-fluoroethoxy)phenyl)-5,7-dimethylpyrazolo[1,5-a]pyrimidin-3-yl)-N,N-diethylacetamide]
- chromatographic logP (LogP HPLC): 2.54 ± 0.08
- IC50 [2]: > 5000 nM
- Biodistribution: Adrenals ([3]; 15 min): 5.64 ± 0.53 % ID/g
- Biodistribution: Bladder ([3]; 15 min): 0.46 ± 0.18 % ID/g
- Biodistribution: Blood ([3]; 15 min): 0.23 ± 0.03 % ID/g
- Biodistribution: Bone ([3]; 15 min): 0.64 ± 0.03 % ID/g
- Biodistribution: Brain ([3]; 15 min): 0.21 ± 0.01 % ID/g
- Biodistribution: GIT ([3]; 15 min): 0.83 ± 0.09 % ID/g
- Biodistribution: Heart ([3]; 15 min): 5.86 ± 0.44 % ID/g
- Biodistribution: Kidney ([3]; 15 min): 3.9 % ID/g and 3.85 ± 0.24 % ID/g
- Biodistribution: Liver ([3]; 15 min): 0.63 ± 0.06 % ID/g
- Biodistribution: Lungs ([3]; 15 min): 14.55 ± 1.35 % ID/g
- Biodistribution: Muscle ([3]; 15 min): 0.65 ± 0.14 % ID/g
- Biodistribution: Olfactory bulbs ([3]; 15 min): 0.35 % ID/g and 0.35 ± 0.03 % ID/g
- Biodistribution: Pancreas ([3]; 15 min): 1.70 ± 0.13 % ID/g
- Biodistribution: Skin ([3]; 15 min): 0.35 ± 0.04 % ID/g
- Biodistribution: Spleen ([3]; 15 min): 4.60 ± 0.29 % ID/g
- Biodistribution: Stomach ([3]; 15 min): 0.45 ± 0.18 % ID/g
- Biodistribution: Testes ([3]; 15 min): 0.184 ± 0.006 % ID/g
- Biodistribution: Thymus ([3]; 15 min): 0.62 ± 0.17 % ID/g
- Biodistribution: Thyroid ([3]; 15 min): 6.94 ± 1.04 % ID/g
- Biodistribution: Adrenals ([3]; 30 min): 6.6 % ID/g and 6.56 ± 1.20 % ID/g
- Biodistribution: Bladder ([3]; 30 min): 0.42 ± 0.08 % ID/g
- Biodistribution: Blood ([3]; 30 min): 0.16 ± 0.01 % ID/g
- Biodistribution: Bone ([3]; 30 min): 0.70 ± 0.02 % ID/g
- Biodistribution: Brain ([3]; 30 min): 0.14 ± 0.01 % ID/g
- Biodistribution: GIT ([3]; 30 min): 0.90 ± 0.03 % ID/g
- Biodistribution: Heart ([3]; 30 min): 5.59 ± 0.26 % ID/g
- Biodistribution: Kidney ([3]; 30 min): 3.62 ± 0.53 % ID/g
- Biodistribution: Liver ([3]; 30 min): 0.54 ± 0.18 % ID/g
- Biodistribution: Lungs ([3]; 30 min): 8.82 ± 0.53 % ID/g
- Biodistribution: Muscle ([3]; 30 min): 0.55 ± 0.03 % ID/g
- Biodistribution: Olfactory bulbs ([3]; 30 min): 0.28 ± 0.03 % ID/g
- Biodistribution: Pancreas ([3]; 30 min): 1.33 ± 0.16 % ID/g
- Biodistribution: Skin ([3]; 30 min): 0.49 ± 0.02 % ID/g
- Biodistribution: Spleen ([3]; 30 min): 4.71 ± 0.61 % ID/g
- Biodistribution: Stomach ([3]; 30 min): 0.32 ± 0.04 % ID/g
- Biodistribution: Testes ([3]; 30 min): 0.209 ± 0.007 % ID/g
- Biodistribution: Thymus ([3]; 30 min): 0.66 ± 0.14 % ID/g
- Biodistribution: Thyroid ([3]; 30 min): 7.99 ± 1.83 % ID/g
- Biodistribution: Adrenals ([3]; 60 min): 7.82 ± 1.73 % ID/g
- Biodistribution: Bladder ([3]; 60 min): 0.72 ± 0.17 % ID/g
- Biodistribution: Blood ([3]; 60 min): 0.14 ± 0.01 % ID/g
- Biodistribution: Bone ([3]; 60 min): 0.79 ± 0.03 % ID/g
- Biodistribution: Brain ([3]; 60 min): 0.13 ± 0.02 % ID/g
- Biodistribution: GIT ([3]; 60 min): 1.31 ± 0.08 % ID/g
- Biodistribution: Heart ([3]; 60 min): 6.45 ± 0.43 % ID/g
- Biodistribution: Kidney ([3]; 60 min): 3.53 ± 0.24 % ID/g
- Biodistribution: Liver ([3]; 60 min): 0.40 ± 0.05 % ID/g
- Biodistribution: Lungs ([3]; 60 min): 5.66 ± 0.56 % ID/g
- Biodistribution: Muscle ([3]; 60 min): 0.43 ± 0.02 % ID/g
- Biodistribution: Olfactory bulbs ([3]; 60 min): 0.29 ± 0.03 % ID/g
- Biodistribution: Pancreas ([3]; 60 min): 1.08 ± 0.19 % ID/g
- Biodistribution: Skin ([3]; 60 min): 0.48 ± 0.04 % ID/g
- Biodistribution: Spleen ([3]; 60 min): 4.51 ± 0.70 % ID/g
- Biodistribution: Stomach ([3]; 60 min): 0.41 ± 0.09 % ID/g
- Biodistribution: Testes ([3]; 60 min): 0.266 ± 0.019 % ID/g
- Biodistribution: Thymus ([3]; 60 min): 0.77 ± 0.12 % ID/g
- Biodistribution: Thyroid ([3]; 60 min): 9.90 ± 3.67 % ID/g
- Biodistribution: Bladder ([3]; 4 hours): 0.80 ± 0.11 % ID/g
- Biodistribution: Blood ([3]; 4 hours): 0.16 ± 0.01 % ID/g
- Biodistribution: Bone ([3]; 4 hours): 1.0 % ID/g and 1.07 ± 0.05 % ID/g
- Biodistribution: Brain ([3]; 4 hours): 0.15 ± 0.01 % ID/g
- Biodistribution: GIT ([3]; 4 hours): 1.90 ± 0.09 % ID/g
- Biodistribution: Heart ([3]; 4 hours): 4.29 ± 0.86 % ID/g
- Biodistribution: Kidney ([3]; 4 hours): 2.4 % ID/g and 2.41 ± 0.40 % ID/g
- Biodistribution: Liver ([3]; 4 hours): 0.29 ± 0.04 % ID/g
- Biodistribution: Lungs ([3]; 4 hours): 2.80 ± 0.51 % ID/g
- Biodistribution: Muscle ([3]; 4 hours): 0.30 ± 0.05 % ID/g
- Biodistribution: Olfactory bulbs ([3]; 4 hours): 0.31 % ID/g and 0.31 ± 0.05 % ID/g
- Biodistribution: Pancreas ([3]; 4 hours): 0.56 ± 0.09 % ID/g
- Biodistribution: Skin ([3]; 4 hours): 0.65 ± 0.05 % ID/g
- Biodistribution: Spleen ([3]; 4 hours): 2.88 ± 0.56 % ID/g
- Biodistribution: Stomach ([3]; 4 hours): 0.79 ± 0.16 % ID/g
- Biodistribution: Testes ([3]; 4 hours): 0.349 ± 0.011 % ID/g
- Biodistribution: Thymus ([3]; 4 hours): 0.91 ± 0.05 % ID/g
- Biodistribution: Thyroid ([3]; 4 hours): 7.97 ± 1.37 % ID/g
- Blood activity level / concentration in the blood over the 4 h study period ([3]; throughout 15 min to 4 h): 0.23%

Compound: CCCN(CCC)C(=O)Cc1c(-c2ccc(OCCF)cc2)nc2ccc(Cl)cn12 [PBR103, 2-(2-(4-(2-fluoroethoxy)phenyl)-6-chloroimidazo[1,2-a]pyridin-3-yl)-N,N-dipropylacetamide]
- chromatographic logP (LogP HPLC): 3.44 ± 0.11
- IC50 ([1]; PBR IC50 (nM)): 51.3 nM
- IC50 [2]: 1840 nM

Compound: O=C(Cc1c(-c2ccc(OCCF)cc2)nc2ccc(Cl)cn12)N1CCCC1 [PBR104, 2-(2-(4-(2-fluoroethoxy)phenyl)-6-chloroimidazo[1,2-a]pyridin-3-yl)-1-(pyrrolidin-1-yl)ethanone]
- chromatographic logP (LogP HPLC): 2.45 ± 0.08
- IC50 ([1]; PBR IC50 (nM)): 575 nM
- IC50 [2]: 1640 nM

Compound: CN(C)C(=O)Cc1c(-c2ccc(OCCF)cc2)nc2ccc(Cl)cn12 [PBR105, 2-(2-(4-(2-fluoroethoxy)phenyl)-6-chloroimidazo[1,2-a]pyridin-3-yl)-N,N-dimethylacetamide]
- chromatographic logP (LogP HPLC): 2.04 ± 0.06
- IC50 ([1]; PBR IC50 (nM)): 675 nM
- IC50 [2]: 1760 nM

Compound: CNC(=O)Cc1c(-c2ccc(OCCF)cc2)nc2ccc(Cl)cn12 [PBR106, 2-(2-(4-(2-fluoroethoxy)phenyl)-6-chloroimidazo[1,2-a]pyridin-3-yl)-N-methylacetamide]
- chromatographic logP (LogP HPLC): 2.05 ± 0.07
- IC50 ([1]; PBR IC50 (nM)): 170 nM
- IC50 [2]: 548 nM

Compound: CCN(C)C(=O)Cc1c(-c2ccc(OCCF)cc2)nc2ccc(Cl)cn12 [PBR107, 2-(2-(4-(2-fluoroethoxy)phenyl)-6-chloroimidazo[1,2-a]pyridin-3-yl)-N-ethyl-N-methylacetamide]
- chromatographic logP (LogP HPLC): 2.34 ± 0.07
- IC50 ([1]; PBR IC50 (nM)): 54.8 nM
- IC50 [2]: 1390 nM

Compound: CC(C)NC(=O)Cc1c(-c2ccc(OCCF)cc2)nc2ccc(Cl)cn12 [PBR110, 2-(2-(4-(2-fluoroethoxy)phenyl)-6-chloroimidazo[1,2-a]pyridin-3-yl)-N-isopropylacetamide]
- chromatographic logP (LogP HPLC): 2.74 ± 0.09
- IC50 ([1]; PBR IC50 (nM)): 14.1 nM
- IC50 [2]: 2740 nM

Source: US20100209345A1, “Fluorinated Ligands for Targeting Peripheral Benzodiazepine Receptors” (Australian Nuclear Science & Technology Organisation, priority 2006, published 2010)
